Source: patent publication US6358883B1, “Pesticidal and parasiticidal use of 1-aryl-1-(substituted thio, sulfinyl and sulfonyl)-2-nitroethane compounds” (American Cyanamid Company, priority 1998, dated 2002)

Legend:
Assay type in all cases: in vivo
[1] = system: M. incognita (Root Knot Nematode) larvae; test: Evaluation of test compounds against M. incognita larvae in microtiter plate wells (movement score); conditions: larvae scored for movement after 20-24 hours; also: key: A score of '9' indicates inactive worms with a straight, sticklike morphology; A score of '8' indicates inactive worms with a limp, curled or curved morphology; A score of '7' indicates dead/paralyzed worms after 72 hours
Summary of the method: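 Newly emerged M. incognita larvae in S Medium (buffered salt solution), 50-65 worms per well, exposed to test compounds in sealed microtiter wells. Movement scored after 20-24 h incubation; wells with obviously dead/paralyzed larvae scored positive. A score of "7" denotes dead/paralyzed worms after […].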

[2] = system: C. elegans (Bristol strain); test: Evaluation of test compounds against C. elegans (motility, 96-well plate); set-up: key: 9=complete kill in 4 hours; 8=complete kill in 24 hours; 7=markedly reduced motility in approximately 95% of worms in 24 hours; 0=normal motility, same as controls; conditions: motility at 4 and 24 hours
Summary of the method: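 Bristol-strain C. elegans in Na buffer added to wells containing dried compound (applied in 80% acetone) and incubated at 20 °C. Motility of adults and larvae scored subjectively but semi-quantitatively under a dissecting microscope at 4 and 24 h after immersion, plates tapped before reading.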

[3] = system: Spodoptera eridania, 2nd instar larvae, southern armyworm (SAW); test: Southern armyworm (SAW) leaf dip test; set-up: key: 0 = no effect; 1 = 10-25% kill; 2 = 26-35% kill; 3 = 36-45% kill; 4 = 46-55% kill; 5 = 56-65% kill; 6 = 66-75% kill; 7 = 76-85% kill; 8 = 86-99% kill; 9 = 100% kill
Summary of the method: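 Compound is dissolved at 10,000 ppm in 35% acetone/water, then diluted with water. Lima bean leaves are dipped for 3 seconds, dried and placed with ten 2nd instar larvae on damp filter paper. Mortality, reduced feeding and molting interference are scored at 5 days.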

[4] = system: Diabrotica virgifera virgifera Leconte, 2nd instar western corn rootworm (WCR); test: Western corn rootworm (WCR) soil test; set-up: key: 0 = no effect; 1 = 10-25% kill; 2 = 26-35% kill; 3 = 36-45% kill; 4 = 46-55% kill; 5 = 56-65% kill; 6 = 66-75% kill; 7 = 76-85% kill; 8 = 86-99% kill; 9 = 100% kill
Summary of the method: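 Compound in 35% acetone/water applied to talc at 1.25 mg active ingredient per jar (about 50 kg/ha), solvent evaporated, then mixed with millet seed and moist soil. Ten 2nd-instar larvae per jar; mortality counted after 5 days, missing larvae scored dead.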

[5] = system: Tetranychus urticae (OP-resistant strain), 2-spotted spider mite (TSM); test: 2-spotted spider mite (TSM) plant dip test; set-up: key: 0 = no effect; 1 = 10-25% kill; 2 = 26-35% kill; 3 = 36-45% kill; 4 = 46-55% kill; 5 = 56-65% kill; 6 = 66-75% kill; 7 = 76-85% kill; 8 = 86-99% kill; 9 = 100% kill; conditions: mortality after 2 days
Summary of the method: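 OP-resistant mites (~100 per leaf) were transferred onto Sieva lima bean primary leaves about 2 h before treatment. Infested plants were dipped for 3 s in compound from a 10,000 ppm stock in 35% acetone/water, diluted with water. Mortality was counted after 2 days.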

[6] = system: Aphis gossypii, cotton aphid (CA); test: Cotton aphid (CA) cotyledon dip test; set-up: key: 0 = no effect; 1 = 10-25% kill; 2 = 26-35% kill; 3 = 36-45% kill; 4 = 46-55% kill; 5 = 56-65% kill; 6 = 66-75% kill; 7 = 76-85% kill; 8 = 86-99% kill; 9 = 100% kill; conditions: mortality after 5 days
Summary of the method: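 Cotyledon-stage cotton plants infested overnight via a heavily infested leaf, then dipped in test solution (compound in 35% acetone/water, diluted with water) and dried. Mortality counted after 5 days.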

[7] = system: Spodoptera eridania, eggs-southern armyworm (SAW-Eggs); test: Southern armyworm eggs (SAW-Eggs) treated diet test; set-up: key: 0 = no effect; 1 = 10-25% kill; 2 = 26-35% kill; 3 = 36-45% kill; 4 = 46-55% kill; 5 = 56-65% kill; 6 = 66-75% kill; 7 = 76-85% kill; 8 = 86-99% kill; 9 = 100% kill; conditions: mortality after 7 days
Summary of the method: (§1)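 Compounds dissolved at 10,000 ppm in 35% acetone/water, diluted with water, applied to artificial diet in wells and dried. Southern corn rootworm or southern armyworm eggs placed on treated diet under vented covers; mortality counted after 7 days.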

[8] = system: Diabrotica undecimpunctata howardi, eggs-southern corn rootworm (SCR-Eggs); test: Southern corn rootworm eggs (SCR-Eggs) treated diet test; set-up: key: 0 = no effect; 1 = 10-25% kill; 2 = 26-35% kill; 3 = 36-45% kill; 4 = 46-55% kill; 5 = 56-65% kill; 6 = 66-75% kill; 7 = 76-85% kill; 8 = 86-99% kill; 9 = 100% kill; conditions: mortality after 7 days
Summary of the method: as §1

CCCCC(CC)COC(=O)CSC(C[N+](=O)[O-])c1cccc(OC)c1 (stereo not shown) [Example 59]
M. incognita (150 ppm) score [1]: 0 | Rating Against C. elegans (150 ppm) [2]: 0 | SAW (300 ppm) rating [3]: 0 | WCR (50 ppm) rating [4]: 0 | TSM (300 ppm) rating [5]: 0 | CA (300 ppm) rating [6]: 0 | SAW Eggs (300 ppm) rating [7]: 0 | SCR Eggs (1000 ppm) rating [8]: 0

COc1cccc(C(C[N+](=O)[O-])SCc2ccccc2)c1 (stereo not shown) [Example 60]
M. incognita (150 ppm) score [1]: 0 | Rating Against C. elegans (150 ppm) [2]: 0 | SAW (300 ppm) rating [3]: 0 | WCR (50 ppm) rating [4]: 0 | TSM (300 ppm) rating [5]: 0 | CA (300 ppm) rating [6]: 0 | SAW Eggs (300 ppm) rating [7]: 0 | SCR Eggs (1000 ppm) rating [8]: 0

CCCSC(C[N+](=O)[O-])c1cccc(OC)c1 (stereo not shown) [Example 61]
M. incognita (150 ppm) score [1]: 0 | Rating Against C. elegans (150 ppm) [2]: 7 | SAW (300 ppm) rating [3]: 0 | WCR (50 ppm) rating [4]: 0 | TSM (300 ppm) rating [5]: 0 | CA (300 ppm) rating [6]: 5 (5 = 56-65% kill) | SAW Eggs (300 ppm) rating [7]: 0 | SCR Eggs (1000 ppm) rating [8]: 0

C=CCSC(C[N+](=O)[O-])c1ccc(OC(F)(F)F)cc1 (stereo not shown) [Example 123]
M. incognita (150 ppm) score [1]: 0 | Rating Against C. elegans (150 ppm) [2]: 7 | SAW (300 ppm) rating [3]: 0 | WCR (50 ppm) rating [4]: 5 (5 = 56-65% kill) | TSM (300 ppm) rating [5]: 0 | CA (300 ppm) rating [6]: 0 | SAW Eggs (300 ppm) rating [7]: 8 (8 = 86-99% kill) | SCR Eggs (1000 ppm) rating [8]: 0

O=[N+]([O-])CC(SCc1ccccc1)c1ccc(OC(F)(F)F)cc1 (stereo not shown) [Example 124]
M. incognita (150 ppm) score [1]: 0 | Rating Against C. elegans (150 ppm) [2]: 7 | SAW (300 ppm) rating [3]: 0 | WCR (50 ppm) rating [4]: 0 | TSM (300 ppm) rating [5]: 0 | CA (300 ppm) rating [6]: 0 | SAW Eggs (300 ppm) rating [7]: 9 (9 = 100% kill) | SCR Eggs (1000 ppm) rating [8]: 0

C=CCSC(C[N+](=O)[O-])c1ccc2ccccc2c1 (stereo not shown) [Example 125]
M. incognita (150 ppm) score [1]: 0 | Rating Against C. elegans (150 ppm) [2]: 0 | SAW (300 ppm) rating [3]: 0 | WCR (50 ppm) rating [4]: 0 | TSM (300 ppm) rating [5]: 0 | CA (300 ppm) rating [6]: 0 | SAW Eggs (300 ppm) rating [7]: 0 | SCR Eggs (1000 ppm) rating [8]: 0

O=C(O)CSC(C[N+](=O)[O-])c1ccc(OC(F)(F)F)cc1 (stereo not shown) [Example 127]
M. incognita (150 ppm) score [1]: 9 | Rating Against C. elegans (150 ppm) [2]: 9 | SAW (300 ppm) rating [3]: 0 | WCR (50 ppm) rating [4]: 0 | TSM (300 ppm) rating [5]: 0 | CA (300 ppm) rating [6]: 0 | SAW Eggs (300 ppm) rating [7]: 0 | SCR Eggs (1000 ppm) rating [8]: 0

O=C(O)CSC(C[N+](=O)[O-])c1cccc([N+](=O)[O-])c1 (stereo not shown) [Example 128]
M. incognita (150 ppm) score [1]: 9 | Rating Against C. elegans (150 ppm) [2]: 9 | SAW (300 ppm) rating [3]: 0 | WCR (50 ppm) rating [4]: 0 | TSM (300 ppm) rating [5]: 0 | CA (300 ppm) rating [6]: 0 | SAW Eggs (300 ppm) rating [7]: 0 | SCR Eggs (1000 ppm) rating [8]: 0

C=CCSC(C[N+](=O)[O-])c1cccc([N+](=O)[O-])c1 (stereo not shown) [Example 129]
M. incognita (150 ppm) score [1]: 0 | Rating Against C. elegans (150 ppm) [2]: 0 | SAW (300 ppm) rating [3]: 0 | WCR (50 ppm) rating [4]: 0 | TSM (300 ppm) rating [5]: 0 | CA (300 ppm) rating [6]: 0 | SAW Eggs (300 ppm) rating [7]: 0 | SCR Eggs (1000 ppm) rating [8]: 0

O=C(O)CSC(C[N+](=O)[O-])c1c(Cl)cccc1Cl (stereo not shown) [Example 130]
M. incognita (150 ppm) score [1]: 9 | Rating Against C. elegans (150 ppm) [2]: 9 | SAW (300 ppm) rating [3]: 0 | WCR (50 ppm) rating [4]: 3 (3 = 36-45% kill) | TSM (300 ppm) rating [5]: 0 | CA (300 ppm) rating [6]: 0 | SAW Eggs (300 ppm) rating [7]: 0 | SCR Eggs (1000 ppm) rating [8]: 0

COC(=O)CSC(C[N+](=O)[O-])c1c(Cl)cccc1Cl (stereo not shown) [Example 131]
M. incognita (150 ppm) score [1]: 9 | Rating Against C. elegans (150 ppm) [2]: 7 | SAW (300 ppm) rating [3]: 0 | WCR (50 ppm) rating [4]: 0 | TSM (300 ppm) rating [5]: 0 | CA (300 ppm) rating [6]: 0 | SAW Eggs (300 ppm) rating [7]: 0 | SCR Eggs (1000 ppm) rating [8]: 0

CCOC(=O)CSC(C[N+](=O)[O-])c1c(Cl)cccc1Cl (stereo not shown) [Example 132]
M. incognita (150 ppm) score [1]: 0 | Rating Against C. elegans (150 ppm) [2]: 0 | SAW (300 ppm) rating [3]: 0 | WCR (50 ppm) rating [4]: 0 | TSM (300 ppm) rating [5]: 0 | CA (300 ppm) rating [6]: 0 | SAW Eggs (300 ppm) rating [7]: 9 (9 = 100% kill) | SCR Eggs (1000 ppm) rating [8]: 9 (9 = 100% kill)

CCCOC(=O)CSC(C[N+](=O)[O-])c1c(Cl)cccc1Cl (stereo not shown) [Example 133]
M. incognita (150 ppm) score [1]: 0 | Rating Against C. elegans (150 ppm) [2]: 0 | SAW (300 ppm) rating [3]: 0 | WCR (50 ppm) rating [4]: 0 | TSM (300 ppm) rating [5]: 0 | CA (300 ppm) rating [6]: 0 | SAW Eggs (300 ppm) rating [7]: 0 | SCR Eggs (1000 ppm) rating [8]: 9 (9 = 100% kill)

CCCCOC(=O)CSC(C[N+](=O)[O-])c1c(Cl)cccc1Cl (stereo not shown) [Example 134]
M. incognita (150 ppm) score [1]: 0 | Rating Against C. elegans (150 ppm) [2]: 0 | SAW (300 ppm) rating [3]: 0 | WCR (50 ppm) rating [4]: 0 | TSM (300 ppm) rating [5]: 0 | CA (300 ppm) rating [6]: 0 | SAW Eggs (300 ppm) rating [7]: 0 | SCR Eggs (1000 ppm) rating [8]: 0

O=C(CSC(C[N+](=O)[O-])c1c(Cl)cccc1Cl)OCc1ccccc1 (stereo not shown) [Example 135]
M. incognita (150 ppm) score [1]: 0 | Rating Against C. elegans (150 ppm) [2]: 0 | SAW (300 ppm) rating [3]: 0 | WCR (50 ppm) rating [4]: 0 | TSM (300 ppm) rating [5]: 0 | CA (300 ppm) rating [6]: 0 | SAW Eggs (300 ppm) rating [7]: 0 | SCR Eggs (1000 ppm) rating [8]: 9 (9 = 100% kill)

CCCSC(C[N+](=O)[O-])c1c(Cl)cccc1Cl (stereo not shown) [Example 136]
M. incognita (150 ppm) score [1]: 0 | Rating Against C. elegans (150 ppm) [2]: 0 | SAW (300 ppm) rating [3]: 0 | WCR (50 ppm) rating [4]: 0 | TSM (300 ppm) rating [5]: 0 | CA (300 ppm) rating [6]: 0 | SAW Eggs (300 ppm) rating [7]: 0 | SCR Eggs (1000 ppm) rating [8]: 0

O=[N+]([O-])CC(SCc1ccccc1)c1c(Cl)cccc1Cl (stereo not shown) [Example 137]
M. incognita (150 ppm) score [1]: 0 | Rating Against C. elegans (150 ppm) [2]: 0 | SAW (300 ppm) rating [3]: 0 | WCR (50 ppm) rating [4]: 0 | TSM (300 ppm) rating [5]: 0 | CA (300 ppm) rating [6]: 0 | SAW Eggs (300 ppm) rating [7]: 9 (9 = 100% kill) | SCR Eggs (1000 ppm) rating [8]: 9 (9 = 100% kill)

COC(=O)CSC(C[N+](=O)[O-])c1cccnc1 (stereo not shown) [Example 171]
M. incognita (150 ppm) score [1]: 9 | Rating Against C. elegans (150 ppm) [2]: 7 | SAW (300 ppm) rating [3]: 0 | WCR (50 ppm) rating [4]: 0 | TSM (300 ppm) rating [5]: 0 | CA (300 ppm) rating [6]: 0 | SAW Eggs (300 ppm) rating [7]: 0 | SCR Eggs (1000 ppm) rating [8]: 0

CCOC(=O)CSC(C[N+](=O)[O-])c1cccnc1 (stereo not shown) [Example 172]
M. incognita (150 ppm) score [1]: 9 | Rating Against C. elegans (150 ppm) [2]: 8 | SAW (300 ppm) rating [3]: 0 | WCR (50 ppm) rating [4]: 0 | TSM (300 ppm) rating [5]: 0 | CA (300 ppm) rating [6]: 0 | SAW Eggs (300 ppm) rating [7]: 0 | SCR Eggs (1000 ppm) rating [8]: 0

CCCCOC(=O)CSC(C[N+](=O)[O-])c1cccnc1 (stereo not shown) [Example 173]
M. incognita (150 ppm) score [1]: 9 | Rating Against C. elegans (150 ppm) [2]: 8 | SAW (300 ppm) rating [3]: 0 | WCR (50 ppm) rating [4]: 0 | TSM (300 ppm) rating [5]: 0 | CA (300 ppm) rating [6]: 0 | SAW Eggs (300 ppm) rating [7]: 0 | SCR Eggs (1000 ppm) rating [8]: 0
